# From patent publication US20060063179A1, “MIFL- a new partner gene of MLL and methods of use thereof” (priority 2004, published 2006)
# Biological target: human DNA topoisomerase II (Homo sapiens, UniProt P11388)
# Assay: DNA topoisomerase II in vitro cleavage assay
# Assay type: biochemical
# Conditions: singly 5' end-labeled MLL intron 8 and MIFL intron 8 substrates; 147 nM enzyme, 1 mM ATP, 20 μM drug, 10 min 37° C.
# Protocol: FIGS. 8A-8D provide images of autoradiographs depicting MLL bcr positions 5382-5570 (FIGS. 8A and 8B) or positions 1387 to 1424 in MIFL intron 8 (FIGS. 8C and 8D) identified utilizing topoisomerase II in vitro cleavage assays. Autoradiographs show cleavage products after 10 minute incubation at 37° C. of 25 ng (30,000 cpm) singly 5' end-labeled DNA with 147 nM human DNA topoisomerase II, 1 mM ATP and, where indicated, 20 μM etoposide, etoposide catechol, etoposide quinone or doxorubicin (FIGS. 8A and 8C), or lower doxorubicin concentrations (FIGS. 8B and 8D). Specified reactions were incubated for an additional 10 minutes at 75° C. before trapping the covalent complexes (FIGS. 8A and 8C). The 5' side (-1 position) of the cleavage sites are shown by the dashes at far right. Fragments of the MLL bcr spanning positions 5382-5570 in intron 8 or fragments of MIFL spanning positions 1309-1479 in intron 8 were subcloned into BamHI-NotI sites of TOPO pCR2.1 (Invitrogen). Twenty micrograms of plasmid DNA first was treated with 400 units T4 DNA ligase (New England Biolabs; Beverly, Mass.) for 1 hour to ensure that the substrates were not nicked. […] Calf intestinal phosphatase was inactivated in 5 mM EDTA (pH 8.0) and the DNA was PCI-extracted and ethanol precipitated. The DNA was then 5' end-labeled with [γ-^32P]ATP (Amersham; Arlington Heights, Ill.) and T4 polynucleotide kinase (New England Biolabs) as described (Felix et al. (1995) Cancer Res., 55:4287-92). Alternatively, to prepare cold substrate DNA, 20 μg of BamHI/NotI-digested, dephosphorylated plasmid were phosphorylated with 10 μM ATP (Boehringer Mannheim; Indianapolis, Ind.) in otherwise similar reactions. […] DNA recovery was quantitated by optical density measurement and scintillation counting. […] Cleavage products were visualized by autoradiography and quantitated using a PhosphorImager and ImageQuant software (Molecular Dynamics; Sunnyvale, Calif.).
# Chain of human DNA topoisomerase II (P11388 whole entry): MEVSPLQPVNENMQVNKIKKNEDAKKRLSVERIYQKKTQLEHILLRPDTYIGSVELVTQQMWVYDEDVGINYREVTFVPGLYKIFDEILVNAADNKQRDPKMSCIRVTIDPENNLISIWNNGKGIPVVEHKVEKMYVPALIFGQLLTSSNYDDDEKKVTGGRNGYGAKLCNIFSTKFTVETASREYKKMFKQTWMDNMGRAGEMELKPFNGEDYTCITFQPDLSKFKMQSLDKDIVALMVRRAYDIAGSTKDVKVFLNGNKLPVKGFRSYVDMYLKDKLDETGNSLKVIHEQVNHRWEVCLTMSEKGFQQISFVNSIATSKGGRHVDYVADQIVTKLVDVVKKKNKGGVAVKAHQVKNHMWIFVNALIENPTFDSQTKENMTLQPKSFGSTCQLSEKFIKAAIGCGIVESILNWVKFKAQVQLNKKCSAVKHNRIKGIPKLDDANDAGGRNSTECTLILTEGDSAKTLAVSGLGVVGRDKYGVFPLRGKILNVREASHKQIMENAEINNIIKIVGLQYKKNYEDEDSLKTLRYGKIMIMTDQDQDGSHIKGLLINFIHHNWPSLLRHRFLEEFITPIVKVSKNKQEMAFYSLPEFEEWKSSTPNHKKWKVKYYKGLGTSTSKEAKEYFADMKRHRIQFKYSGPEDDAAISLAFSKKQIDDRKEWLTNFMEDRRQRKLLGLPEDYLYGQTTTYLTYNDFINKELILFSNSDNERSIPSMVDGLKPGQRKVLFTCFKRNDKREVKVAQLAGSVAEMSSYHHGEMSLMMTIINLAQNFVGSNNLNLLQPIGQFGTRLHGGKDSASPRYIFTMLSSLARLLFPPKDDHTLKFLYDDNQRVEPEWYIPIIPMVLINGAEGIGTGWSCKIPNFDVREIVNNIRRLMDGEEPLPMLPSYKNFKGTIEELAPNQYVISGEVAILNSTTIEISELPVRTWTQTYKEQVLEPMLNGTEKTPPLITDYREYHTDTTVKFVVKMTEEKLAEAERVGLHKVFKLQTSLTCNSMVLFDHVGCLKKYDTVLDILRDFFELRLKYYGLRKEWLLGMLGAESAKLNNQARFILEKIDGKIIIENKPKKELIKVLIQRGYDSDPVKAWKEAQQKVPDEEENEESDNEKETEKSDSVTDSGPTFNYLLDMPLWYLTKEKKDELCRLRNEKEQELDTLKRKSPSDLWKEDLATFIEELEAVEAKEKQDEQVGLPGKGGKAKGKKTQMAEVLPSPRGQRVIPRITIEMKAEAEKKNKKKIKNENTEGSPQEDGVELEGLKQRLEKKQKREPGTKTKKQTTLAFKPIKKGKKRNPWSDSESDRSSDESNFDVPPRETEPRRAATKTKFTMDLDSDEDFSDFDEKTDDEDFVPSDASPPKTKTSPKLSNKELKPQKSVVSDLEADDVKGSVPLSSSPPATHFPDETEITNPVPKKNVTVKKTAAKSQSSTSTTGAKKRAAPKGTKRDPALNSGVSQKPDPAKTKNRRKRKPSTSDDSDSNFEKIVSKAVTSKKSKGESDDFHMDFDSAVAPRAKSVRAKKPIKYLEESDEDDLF
row,SMILES,formation of DNA topoisomerase II cleavage complexes at or near the translocation breakpoints
1,COc1cc([C@@H]2c3cc4c(cc3[C@@H](O[C@@H]3O[C@@H]5CO[C@@H](C)O[C@H]5[C@H](O)[C@H]3O)[C@H]3COC(=O)[C@H]23)OCO4)cc(OC)c1O [etoposide],increased the formation of DNA topoisomerase II cleavage complexes
2,"COc1cccc2c1C(=O)c1c(O)c3c(c(O)c1C2=O)C[C@@](O)(C(=O)CO)C[C@@H]3O[C@H]1C[C@H](N)[C@H](O)[C@H](C)O1 [dox, doxorubicin]",marginal activity
3,COC1=CC(C2c3cc4c(cc3C(O[C@@H]3O[C@@H]5COC(C)O[C@H]5[C@H](O)[C@H]3O)C3COC(=O)C23)OCO4)=CC(=O)C1=O (stereo partly drawn) [etoposide quinone],increased the formation of DNA topoisomerase II cleavage complexes
